From patent US20250249113A1, “LIGAND-DRUG-CONJUGATES WITH IMPROVED PHARMACOKINETIC AND DRUG RELEASE PROPERTIES” (Debiopharm Research & Manufacturing S.A., priority 2022, published 2025)
Where a SMILES comes first, the peptide text is derived from it. Side-chain parts run from the residue outwards. [ ]: non-standard residue; d: D form. The star is where a group is joined. DM1Mal(CH2)2CO = COc1cc2cc(c1Cl)N(C)C(=O)C[C@H](OC(=O)[C@H](C)N(C)C(=O)CCSC1CC(=O)N(CCC(=O)*)C1=O)[C@]1(C)O[C@H]1[C@H](C)[C@@H]1C[C@@](O)(NC(=O)O1)[C@H](OC)/C=C/C=C(\C)C2; X1 = CC(=O)N[C@@H](CSC1CC(=O)N(CCC(=O)*)C1=O)C(=O)O; Dolaproine = CO[C@@H]([C@@H]1CCCN1)[C@@H](C)C(=O)O; Dil = CC[C@H](C)[C@H](NC)[C@@H](CC(=O)O)OC; NMe2Val = CC(C)[C@@H](C(=O)*)N(C)C; PEG5 = NCCOCCOCCOCCOCCOCCC(=O)O; Cit = NC(=O)NCCC[C@H](N)C(=O)O; PEG4 = NCCOCCOCCOCCOCCC(=O)O

Experiments:
[1] = biological target: T1, Cathepsin B (Homo sapiens, UniProt P07858); assay: Cat B-induced cleavage study (in vitro enzymatic cleavage assay, UHPLC-MS/MS); format: biochemical; details: for Ratio (T1/2 Compound/T1/2 Reference): reference: Cys-MC-Val-Cit-PABC-MMAF; for half-life at 10 μM: human, recombinant human Cathepsin B, 10 μM compound, Cathepsin B 2 μg/mL, 25 mM MES buffer pH 5.0, 37° C., read-out: T1/2 Compound
T1 construct: purchased R&D Systems, Bio-Techne AG 953-CY-010
Protocol: (§1) The propensity of compounds 1-13 to be cleaved by Cathepsin B—was evaluated according to an in vitro enzymatic cleavage assay using recombinant human Cathepsin B and UHPLC-MS/MS analysis as described below.
(§2) Reference compounds Cys-MC-Val-Cit-PABC-MMAF and MMAF were used as positive controls. The enzyme was reconstituted in 25 mM MES buffer adjusted at pH 5.0 with a 1M NaOH solution and then activated with a […] solution of DDT at room temperature for at least 15 min.
(§3) The in vitro enzymatic assay was conducted at 37° C. with the test compounds at a concentration of 10 μM (2.5 μM when the test compound is an antibody-drug conjugate) in the presence of activated recombinant human Cathepsin B enzyme at 2 μg/mL in a 25 mM MES buffer pH 5.0. The enzymatic cleavage reaction was stopped for each defined time point by mixing an equal volume of acetonitrile+0.1% FA containing an internal standard (warfarine at 8 μM).
(§4) Analysis was conducted using a Waters Acquity UPLC System coupled to a Waters Xevo TQ triple quad mass spectrometer. UHPLC was conducted depending on the test compounds with a BEH C8 1.7 μm 100×2.1 mm or BEH C18 1.7 μm 50×2.1 mm or HSS T3 1.7 μm 50×2.1 mm columns heated at 45° C. or 50° C. and fitted with 2 μm insert filter pre-columns (available from Waters), and solvent systems A1 (H2O+0.1% FA) and B1 (acetonitrile+0.1% FA) at a flow rate of 0.6 mL/min and a 10-95% gradient of B1 over 1.9 min.
(§5) MS/MS was performed using electrospray ionization (ESI) interface in positive mode and specific MRM transitions for each tested compound.

[2] = biological target: T2, Cathepsin B (exo-Cat B cleavage) (Homo sapiens, UniProt P07858); assay: as above; format: biochemical; details: human, recombinant human Cathepsin B, pH 5; read-out: T1/2 (cleavage by exo-Cat B)
T2 construct: purchased R&D Systems, Bio-Techne AG 953-CY-010
Protocol: as §1, §2, §3, §4, §5

[3] = DRF toxicity study of DM1-Ac-Cit and DM1-Ac-Cit-Lys(Cys-ma-Lys(PEG16))-Tyr-OH, 2 intravenous bolus injections (Day 1 and Day 8), female mice; format: in vivo, mouse; details: for related mortalities, clinical observations or effects on body weights and food consumption / related ophthalmic findings or changes in clinical pathology parameters / related organ weight changes, macroscopic and microscopic findings: DM1-Ac-Cit 0.15, 0.68 or 1.4 mg/kg/adm, DM1-Ac-Cit-Lys(Cys-ma-Lys(PEG16))-Tyr-OH 3.5 mg/kg/adm, 2 i.v. injections
Protocol: The objectives of this study were to determine the potential toxicity of Multilink-DM1-Ac-Cit and DM1-Ac-Cit-Lys(Cys-ma-Lys(PEG16))-Tyr-OH when administered intravenously (via bolus injection).
2 injections of the same dose of either DM1-Ac-Cit ((test item 1) at 0.15, 0.68 or 1.4 mg/kg/adm) or 2 injections of the same dose of DM1-Ac-Cit-Lys(Cys-ma-Lys(PEG16))-Tyr-OH ((test item 2) at 3.5 mg/kg/adm were administered separately (on Day 1 and Day 8 (7-day interval) to CD-1® IGS mice, and the reversibility and/or delayed occurrence of any findings were evaluated during a 10-day observation period. In addition, the toxicokinetic characteristics of DM1-Ac-Cit-Lys(Cys-ma-Lys(PEG16))-Tyr-OH, DM1-Ac-Cit, and the catabolite DM1 were determined.
A control group received the Vehicle Control 1: 8% Ethanol/8% Polysorbate (Tween*) 80/PBS 84%.
The study design was as follows:
The following parameters and end points were evaluated in this study: mortality, clinical observations, body weights, food consumption, ophthalmology, clinical pathology parameters (hematology and clinical chemistry), toxicokinetic parameters, organ weights, and macroscopic and microscopic examinations.

Row | Compound | Ratio (T1/2 Compound/T1/2 Reference) [1] | half-life at 10 μM [1] | also measured
1 | CC[C@H](C)[C@@H]([C@@H](CC(=O)N1CCC[C@H]1[C@H](OC)[C@@H](C)C(=O)N[C@@H](Cc1ccccc1)C(=O)N[C@@H](CCCNC(=N)N)C(=O)N[C@@H](CCCCNC(=O)CCOCCOCCOCCOCCOCCNC(=O)CCN1C(=O)CC(SC[C@H](NC(C)=O)C(=O)O)C1=O)C(=O)N[C@@H](Cc1ccccc1)C(=O)O)OC)N(C)C(=O)[C@@H](NC(=O)[C@H](C(C)C)N(C)C)C(C)C (stereo partly drawn) [Compound 1, AF-Arg-Lys(PEG4-Mal-Cys-Ac)-Phe-OH] (NMe2Val-V[Dil][Dolaproine]FRK([PEG5-X1])F-OH; N-terminus assumed) | 0.12 |  | 
2 | CC[C@H](C)[C@@H]([C@@H](CC(=O)N1CCC[C@H]1[C@H](OC)[C@@H](C)C(=O)N[C@@H](Cc1ccccc1)C(=O)N[C@@H](CCCNC(=N)N)C(=O)N[C@@H](Cc1ccccc1)C(=O)N[C@@H](CCCCNC(=O)CCOCCOCCOCCOCCNC(=O)CCN1C(=O)CC(SC[C@H](NC(C)=O)C(=O)O)C1=O)C(=O)O)OC)N(C)C(=O)[C@@H](NC(=O)[C@H](C(C)C)N(C)C)C(C)C (stereo partly drawn) [Compound 3, AF-Arg-Phe-Lys(PEG4-Mal-Cys-Ac)-OH] (NMe2Val-V[Dil][Dolaproine]FRFK([PEG4-X1])-OH; N-terminus assumed) | 0.11 |  | 
3 | COc1cc2cc(c1Cl)N(C)C(=O)C[C@H](OC(=O)[C@H](C)N(C)C(=O)CCSC1CC(=O)N(CCC(=O)N[C@@H](Cc3ccccc3)C(=O)N[C@@H](CCCCN)C(=O)N[C@@H](CCCCNC(=O)CCOCCOCCOCCOCCNC(=O)CCN3C(=O)CC(SC[C@H](NC(C)=O)C(=O)O)C3=O)C(=O)N[C@@H](Cc3ccccc3)C(=O)O)C1=O)[C@]1(C)O[C@H]1[C@H](C)[C@@H]1C[C@@](O)(NC(=O)O1)[C@H](OC)/C=C/C=C(\C)C2 (stereo partly drawn) [Compound 5, DM1-Mal-Phe-Lys-Lys(PEG4-Mal-Cys-Ac)-Phe-OH] ({DM1Mal(CH2)2CO}-FKK([PEG4-X1])F-OH; N-terminus assumed) | 0.05 | 36 s | Cat B-induced drug release, faster as compared to reference Cys-MC-Val-Cit-PABC-MMAF [1]: 20 times
4 | COc1cc2cc(c1Cl)N(C)C(=O)C[C@H](OC(=O)[C@H](C)N(C)C(=O)CCSC1CC(=O)N(CCC(=O)N[C@@H](Cc3ccccc3)C(=O)N[C@@H](CCCNC(N)=O)C(=O)N[C@@H](CCCCNC(=O)CCOCCOCCOCCOCCNC(=O)CCN3C(=O)CC(SC[C@H](NC(C)=O)C(=O)O)C3=O)C(=O)N[C@@H](Cc3ccccc3)C(=O)O)C1=O)[C@]1(C)O[C@H]1[C@H](C)[C@@H]1C[C@@](O)(NC(=O)O1)[C@H](OC)/C=C/C=C(\C)C2 (stereo partly drawn) [Compound 6, DM1-Mal-Phe-Cit-Lys(PEG4-Mal-Cys-Ac)-Phe-OH] ({DM1Mal(CH2)2CO}-F[Cit]K([PEG4-X1])F-OH; N-terminus assumed) | 0.02 | 18 s | 
5 | COc1cc2cc(c1Cl)N(C)C(=O)C[C@H](OC(=O)[C@H](C)N(C)C(=O)CCSC1CC(=O)N(CCC(=O)N[C@@H](Cc3ccccc3)C(=O)N[C@@H](CCCNC(N)=O)C(=O)N[C@@H](Cc3ccccc3)C(=O)N[C@@H](CCCCNC(=O)CCOCCOCCOCCOCCNC(=O)CCN3C(=O)CC(SC[C@H](NC(C)=O)C(=O)O)C3=O)C(=O)O)C1=O)[C@]1(C)O[C@H]1[C@H](C)[C@@H]1C[C@@](O)(NC(=O)O1)[C@H](OC)/C=C/C=C(\C)C2 (stereo partly drawn) [Compound 7, DM1-Mal-Phe-Cit-Phe-Lys(PEG4-Mal-Cys-Ac)-OH] ({DM1Mal(CH2)2CO}-F[Cit]FK([PEG4-X1])-OH; N-terminus assumed) | 0.09 | 72 s | 
6 | CC[C@H](C)[C@@H]([C@@H](CC(=O)N1CCC[C@H]1[C@H](OC)[C@@H](C)C(=O)N[C@@H](Cc1ccccc1)C(=O)N[C@@H](CCCNC(N)=O)C(=O)N[C@@H](CCCCNC(=O)CCOCCOCCOCCOCCNC(=O)CCN1C(=O)CC(SC[C@H](NC(C)=O)C(=O)O)C1=O)C(=O)N[C@@H](Cc1ccccc1)C(=O)O)OC)N(C)C(=O)[C@@H](NC(=O)[C@H](C(C)C)N(C)C)C(C)C (stereo partly drawn) [Compound 8, AF-Cit-Lys(PEG4-Mal-Cys-Ac)-Phe-OH] (NMe2Val-V[Dil][Dolaproine]F[Cit]K([PEG4-X1])F-OH; N-terminus assumed) | 0.09 |  | 
7 | COc1cc2cc(c1Cl)N(C)C(=O)C[C@H](OC(=O)[C@H](C)N(C)C(=O)CCSC1CC(=O)N(CC3CCC(C(=O)N[C@@H](Cc4ccccc4)C(=O)N[C@@H](CCCNC(N)=O)C(=O)N[C@@H](CCCCNC(=O)CCOCCOCCOCCOCCOCCNC(=O)CN4C(=O)CC(SC[C@H](NC(C)=O)C(=O)O)C4=O)C(=O)N[C@@H](Cc4ccc(O)cc4)C(=O)O)CC3)C1=O)[C@]1(C)O[C@H]1[C@H](C)[C@@H]1C[C@@](O)(NC(=O)O1)[C@H](OC)/C=C/C=C(\C)C2 (stereo partly drawn) [Compound 11, DM1-Mcc-Phe-Cit-Lys(PEG5-Ma-Cys-Ac)-Tyr-OH] | 0.005 | 3.6 s | half-life [2]: ≤ 60 s
8 | COc1cc2cc(c1Cl)N(C)C(=O)C[C@H](OC(=O)[C@H](C)N(C)C(=O)CCSC1CC(=O)N(CC3CCC(C(=O)N[C@@H](CCCNC(N)=O)C(=O)N[C@@H](CCCCNC(=O)CCOCCOCCOCCOCCOCCNC(=O)CN4C(=O)CC(SC[C@H](NC(C)=O)C(=O)O)C4=O)C(=O)N[C@@H](Cc4ccc(O)cc4)C(=O)O)CC3)C1=O)[C@]1(C)O[C@H]1[C@H](C)[C@@H]1C[C@@](O)(NC(=O)O1)[C@H](OC)/C=C/C=C(\C)C2 (stereo partly drawn) [Compound 12, DM1-Mcc-Cit-Lys(PEG5-Ma-Cys-Ac)-Tyr-OH] | 0.00004 |  | half-life [2]: ≤ 60 s
9 | DM1-Ac-Cit |  |  | tolerability ([3]; 2 i.v. bolus injections at 7-day interval at 0.15, 0.68, and 1.4 mg/kg/adm, female CD-1 mice): well tolerated; related mortalities, clinical observations or effects on body weights and food consumption [3]: no; related ophthalmic findings or changes in clinical pathology parameters [3]: no; related organ weight changes, macroscopic and microscopic findings [3]: no macroscopic and microscopic findings; no observed adverse effect level (NOAEL) ([3]; DM1-Ac-Cit, 2 i.v. bolus injections at 7-day interval, female CD-1 mice): 1.4 mg/kg/adm
10 | DM1-Ac-Cit-Lys(Cys-ma-Lys(PEG16))-Tyr-OH |  |  | tolerability ([3]; 2 i.v. bolus injections at 7-day interval at 3.5 mg/kg/adm): well tolerated; related mortalities, clinical observations or effects on body weights and food consumption [3]: no; related ophthalmic findings or changes in clinical pathology parameters [3]: no; related organ weight changes, macroscopic and microscopic findings [3]: no macroscopic and microscopic findings
